Test results published in patent publication US12564580B2, “Mitochondria-targeted isoketal/isolevuglandin scavengers and uses thereof” (Vanderbilt University, priority 2020, dated 2026).

Key:
[1] = test system: Intact mouse kidney mitochondria, complex I-mediated respiration; experiment: Respiration of isolated kidney mitochondria with complex I substrates glutamate+malate after acute IsoLG/IsoLG-PE treatment; format: biochemical
[2] = test system: Intact mouse kidney mitochondria, complex II respiration; experiment: Respiration of isolated kidney mitochondria with complex II substrate succinate after acute IsoLG/IsoLG-PE treatment; format: biochemical; conditions: acute addition of a low dose (0.5 μM printed elsewhere in the source)
Method: FIGS. 1A-1C show acute treatment with IsoLG or IsoLG-PE impairs mitochondrial respiration. (A) Intact mouse kidney mitochondria were incubated (5 min) with ethanol as vehicle (Sham), IsoLG (20 μM) or IsoLG-PE (20 μM) and then diluted with respiration buffer 20-fold prior to addition of Glutamate and Malate, ADP (50 μM) and measurements of oxygen consumption in State III. *P<0.001 vs Sham, **P<0.03 vs IsoLG. (B) Oxygen consumption in the presence of complex I substrates Glutamate+Malate and ADP (State III) and Respiratory Control Ratio (State III/State IV, %) in intact kidney mitochondria treated with vehicle, IsoLG (1.5 μM) or IsoLG-PE (1.5 μM) in the respiration chamber. (C) State III respiration and Respiratory Control Ratio (State III/State IV, %) in presence of complex II substrate Succinate and ADP following addition of vehicle, IsoLG (1.5 μM) or IsoLG-PE (1.5 μM) in the respiration chamber.
Complex I is a key component of mitochondrial oxidative phosphorylation. Inactivation of complex I can lead to reduced ATP production and tissue damage. Addition of IsoLG to cells produces both protein—adducts and IsoLG-phosphatidylethanolamine adducts (IsoLG-PE) which can independently contribute to mitochondrial dysfunction. The present inventors tested whether IsoLG or IsoLG-PE could contribute to mitochondrial dysfunction. […]

[3] = target: complex II (Mus musculus, UniProt Q8K2B3+Q9CQA3+Q9CXV1+Q9CZB0); experiment: Complex II activity in mouse kidney mitochondrial lysate; format: biochemical; conditions: mitochondrial lysates treated with a bolus of IsoLG
[4] = test system: complex I; experiment: Complex I activity in mouse kidney mitochondrial lysate; conditions: mitochondrial lysates treated with a bolus of IsoLG
Method: (C) Mouse kidney mitochondrial lysate was acutely treated with DMSO (Control), ethanolamine, spermine, L-lysine, IsoLG (1.5 μM) or IsoLG modified-ethanolamine (IsoLG-ETN, 1.5 μM), -spermine (IsoLG-Sper, 1.5 μM), L-lysine (IsoLG-Lys, 1.5 μM), -phosphatidylethanolamine (IsoLG-PE, 1.5 μM) prior to measurements of complex I activity expressed as a % of Control (100%).
OXPHOS specific enzyme activities in submitochondrial particles (SMP) were measured using a Varian Cary 300 Bio UV/Vis spectrophotometer with temperature controlling cell holder. Briefly, SMP were prepared by sonication of isolated organelles. Complex I activity was monitored in triplicate samples as the reduction of 10 μM decylubiquinone at 272 nm by 15 μg of mitochondrial protein with 40 μM NADH.
To test this hypothesis, the present inventors studied the activity of complex I and complex II in mitochondrial lysates treated with a bolus of IsoLG.

[5] = test system: human aortic endothelial cells (HAEC); experiment: Mitochondrial superoxide in human aortic endothelial cells stimulated with angiotensin II plus TNFα (mitoSOX HPLC); format: cell-based
Method: FIGS. 9A and B show the effect of mito2HOBA on mitochondrial superoxide and cardiolipin oxidation in human aortic endothelial cells induced by angiotensin II plus TNFα. (A) Mitochondrial superoxide was measured by HPLC analysis of mitoSOX-superoxide specific product, mito-2-hydroxyethidium (Mito-2OH-Et+). […] (B) Cardiolipin oxidation induced by Angiotensin II+TNFα measured my LC/MS. […] Data are mean±SEM. *P<0.01 vs Control, **P<0.01 vs Angiotensin II+TNFα (n=4).
Human aortic endothelial cells (HAEC) were purchased from Lonza (Chicago, IL) and cultured in EGM-2 medium supplemented with 2% FBS but without antibiotics. On the day before the study, the FBS concentration was reduced to 1%.
We tested if mito2HOBA reduces mitochondrial oxidative stress in human aortic endothelial cells (HAEC) stimulated with angiotensin II plus TNFα for 4-hours (FIG. 9). Indeed, supplementation of HAEC with mito2HOBA (50 nM) reduced mitochondrial superoxide production stimulated by TNF[…] and Ang II as measured by accumulation of specific superoxide-MitoSOX product, 2-OH-Mito-Ethidium.

[6] = test system: C57Bl/6J mice, Ang II-induced hypertension; experiment: Blood pressure in angiotensin II model of hypertension (tail-cuff and telemetry); format: in vivo, mouse; conditions: same molar dose of untargeted 2HOBA (0.17 mmol/L) in drinking water
Text: FIGS. 10A-D show the effect of mito2HOBA on angiotensin II-induced hypertension and accumulation of mitochondrial isoLGs protein adducts. (A) Blood pressure tail-cuff measurements in male Sham or angiotensin II-infused mice supplied with mito2HOBA in drinking water (0.1 g/L) or equimolar amount of untargeted analog 2HOBA (0.17 mmol/L). (B) Telemetry studies of blood pressure in angiotensin II-infused mice supplied with mito2HOBA or plain water as a vehicle. (C) Representative LC/MS/MS chromatograms of isoLG-Lysyl-Lactam adduct; (D) isoLG-Lys-Lactam levels in kidney mitochondria isolated from Sham or angiotensin II-infused mice supplied with mito2HOBA. Results are mean±SEM. *P<0.01 vs Sham, **P<0.01 vs Ang II (n=8).
Hypertension was induced by angiotensin II ([…]) as described previously. To test the therapeutic potential of scavenging of mitochondrial isoLGs, wild-type C57B1/6J male and female mice (Jackson Labs) received saline or angiotensin II minipump placement, and provided with the plain water (vehicle) or mito2HOBA in the drinking water (0.1 g/liter). Blood pressure was monitored by the telemetry and tail-cuff measurements as previously described. The Vanderbilt Institutional Animal Care and Use Committee approved the procedures (Protocol M1700207). Simple randomization was used to select animals for sham, angiotensin II or mito2HOBA groups for equal chance of being allocated to treatment groups.
To test a functional role of mitochondrial isoLGs in hypertension, we used an Ang II model of hypertension, and monitored blood pressure by tail-cuff (FIG. 10A) and telemetry (FIG. 10B). […] Infusion of wild-type C57B1/6J mice with Ang II (0.7 mg/kg/day) increased systolic blood pressure to 162 mm Hg.

[7] = target: complex II (Mus musculus, UniProt Q8K2B3); experiment: Glutamate-driven respiration of kidney mitochondria with Complex II inhibitor malonate; conditions: malonate 5 mM, Glutamate+Malate
complex II (Mus musculus, UniProt Q8K2B3), sequence (Q8K2B3 43-664): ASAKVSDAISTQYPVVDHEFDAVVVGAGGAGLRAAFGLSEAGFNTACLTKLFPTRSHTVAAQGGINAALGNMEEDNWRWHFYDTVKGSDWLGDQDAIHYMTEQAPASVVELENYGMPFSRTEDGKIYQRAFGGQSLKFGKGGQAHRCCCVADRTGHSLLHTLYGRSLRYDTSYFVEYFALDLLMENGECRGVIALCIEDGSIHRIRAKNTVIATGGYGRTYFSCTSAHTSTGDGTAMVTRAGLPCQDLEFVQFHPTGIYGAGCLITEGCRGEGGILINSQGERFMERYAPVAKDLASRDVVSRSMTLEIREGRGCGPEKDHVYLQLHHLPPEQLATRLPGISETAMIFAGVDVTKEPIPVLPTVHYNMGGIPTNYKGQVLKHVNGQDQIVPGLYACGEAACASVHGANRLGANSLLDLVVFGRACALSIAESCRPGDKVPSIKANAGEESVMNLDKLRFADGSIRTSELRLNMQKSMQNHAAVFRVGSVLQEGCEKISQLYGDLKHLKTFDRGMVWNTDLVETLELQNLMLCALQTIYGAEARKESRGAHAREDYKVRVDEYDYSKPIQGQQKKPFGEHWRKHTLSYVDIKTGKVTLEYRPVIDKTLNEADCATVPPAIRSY
complex II (Mus musculus, UniProt Q8K2B3), sequence (Q9CQA3 31-282 partner): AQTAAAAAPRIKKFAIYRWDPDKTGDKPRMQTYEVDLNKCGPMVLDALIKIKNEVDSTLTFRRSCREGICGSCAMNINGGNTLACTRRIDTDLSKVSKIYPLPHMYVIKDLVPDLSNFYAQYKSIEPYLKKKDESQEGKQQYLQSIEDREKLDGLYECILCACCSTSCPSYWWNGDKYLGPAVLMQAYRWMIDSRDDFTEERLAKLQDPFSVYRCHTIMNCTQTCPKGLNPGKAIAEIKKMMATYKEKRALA
complex II (Mus musculus, UniProt Q8K2B3), sequence (Q9CZB0 30-169 partner): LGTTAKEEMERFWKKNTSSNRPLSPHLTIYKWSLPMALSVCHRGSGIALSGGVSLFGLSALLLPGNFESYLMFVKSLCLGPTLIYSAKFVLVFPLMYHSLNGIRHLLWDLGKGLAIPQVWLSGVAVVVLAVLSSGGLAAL
complex II (Mus musculus, UniProt Q8K2B3), sequence (Q9CXV1 57-159 partner): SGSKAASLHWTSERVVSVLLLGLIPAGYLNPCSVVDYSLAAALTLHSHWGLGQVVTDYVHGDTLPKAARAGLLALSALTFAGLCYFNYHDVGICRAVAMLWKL
Method: To study the mitochondrial function, the combination of glutamate and malate (GM) or succinate was used as substrates. Since glutamate can be converted via transamination to α-ketoglutarate and further to succinate, the present inventors used complex II inhibitor malonate to define specific complex I respiration. The basal respiration (1) was measured in mitochondria supplemented with respiratory substrates. Then ADP was added to measure the coupled respiration (2). The proton leak (3) was determined after addition of complex V inhibitor oligomycin A. The uncoupled respiration (4) was measured after supplementation with CCCP. Finally, antimycin A plus rotenone were added to assess non-mitochondrial respiration (5) as described previously [32].
Mitochondria were isolated from 12-14-week-old male C57BL6/6J mouse kidneys. For respiration studies, electrons were entered at either complex I (glutamate+malate as substrate) or complex II (succinate as substrate). […] Since kidney mitochondria are much less studied than mitochondria from other organs, the present inventors used the specific inhibitor of Complex II malonate (5 mM) to evaluate the alternative pathways for glutamate oxidation. The Complex II mediated respiration was defined as malonate-inhibited oxygen consumption while Complex I specific respiration was defined as malonate resistant oxygen consumption. […]

complex II (Mus musculus, UniProt Q8K2B3+Q9CQA3+Q9CXV1+Q9CZB0), sequence (Q8K2B3 43-664): as the sequence (Q8K2B3 43-664) above
complex II (Mus musculus, UniProt Q8K2B3+Q9CQA3+Q9CXV1+Q9CZB0), sequence (Q9CQA3 31-282): as the sequence (Q9CQA3 31-282 partner) above
complex II (Mus musculus, UniProt Q8K2B3+Q9CQA3+Q9CXV1+Q9CZB0), sequence (Q9CZB0 30-169): as the sequence (Q9CZB0 30-169 partner) above
complex II (Mus musculus, UniProt Q8K2B3+Q9CQA3+Q9CXV1+Q9CZB0), sequence (Q9CXV1 57-159): as the sequence (Q9CXV1 57-159 partner) above

15-E2-isolevuglandin [15-E2-IsoLG]
inhibition of state 3 respiration ([1]; 20 μM, five-minute treatment of isolated mitochondria, complex I substrates glutamate+malate): 74%
complex I-mediated respiration ([1]; acute addition of a low dose (0.5 μM printed elsewhere in the source), intact mitochondria): significantly attenuated
complex II respiration [2]: much less affected
complex II activity inhibited [3]: 21%
complex I inactivation [4]: 74%

NCc1ccccc1O [2HOBA, 2-hydroxybenzylamine]
mitochondrial superoxide production ([5]; 50 nM, angiotensin II plus TNFα for 4-hours): did not affect
mitochondrial superoxide overproduction ([5]; cultured HAEC, concentration not stated (discussion)): partially attenuates
Ang II-induced hypertension [6]: did not attenuate

NCc1ccc(O)cc1 [4HOBA, 4-hydroxybenzylamine]
mitochondrial superoxide (mitochondrial oxidative stress) ([5]; 4HOBA high dose 10 μM, angiotensin II plus TNFα): did not protect

O=C(O)CC(=O)O [Malonate, malonate]
inhibition of glutamate-driven respiration [7]: 58%
